Values joined by “and” are separate entries in the source; they are usually repeats but may differ in a detail not shown here. Equal entries are not always repeated.
Legend:
CD1 male mice [1] = experiment: Acetic acid-induced abdominal writhing assay; assay type: in vivo, mouse; conditions: for No. of writhes counted within a 10 min time interval, 25 min post drug administration, beginning 5 min after acetic acid injection: 75 mg/Kg body weight p.o., single animals, n = 7 (raw data for FIG. 1A); for number of writhes induced by injection of acetic acid: mean, vehicle only 42.3+/−7.2
Experimental: Two different assays were utilized to quantify the analgesic effects of the compounds. All tests were performed on CD1 male mice. […] In some embodiments, the vehicle can comprise Agent K, 0.2%, Bio-serve, or Labrafil 1944 (Gottefosee, France). Compound or vehicle was administered orally by lavage under brief halothane anesthesia to animals fasted overnight.
Acetic acid-induced abdominal writhing assay. Contraction of the abdominal muscle and stretching of the hind limbs is induced as a response to intraperitoneal (ip) injection of an acetic acid solution, as described Hendershot and Forsaith, 1959. In this model of visceral pain, abdominal contractions (writhing) is induced in mice by an ip injection of 0.4% acetic acid at a dose of 10 mL/Kg, 25 min after drug administration. The number of writhes is counted for 10 min beginning 5 min after acetic acid injection. […] Data is expressed as mean±SEM, n=7.

mouse = experiment: LPS-induced fever mouse model; assay type: in vivo; conditions: versus ApAP, 2 h, 8 h and 10 h
CYP2E1 = target: T1, CYP2E1 (Homo sapiens, UniProt P05181); experiment: VIVID CYP450 screening assay, CYP2E1; assay type: in vitro ADME; conditions: probe CYP enzyme specific fluorogenic substrate (not named)
T1 construct: purchased Life Technologies, Invitrogen/Thermo Fisher Scientific; host or cells: insect cells (microsomes)
Experimental: (§1) The […]450 screening assay kit (Life Technologies, Invitrogen/Thermo Fisher Scientific) was used as an in vitro high throughput screening. Here, each compound was mixed with a master pre-mix comprising of CYP450 BACULOSOMES (which are microsomes prepared from insect cells expressing a specific human P450 isoenzyme), reagent and regeneration system, which contained glucose-6-phosphate and glucose-6-phosphate dehydrogenase. The mixture was pre-incubated at room temperature for 20 minutes. Following this, each CYP enzyme specific substrate and NADP^+ were added and the mixture incubated at room temperature for 30 minutes. The reaction was stopped by addition of 0.5 M Tris base. CYP activity was evaluated by measuring the fluorescence of the fluorescent metabolite generated from each CYP enzyme specific substrate.

HepaRG and hHEPs [2] = experiment: LDH cytotoxicity assay in hepatocytes; assay type: cell-based, human; conditions: 500 μM and 1000 μM; time and dose-dependent
Experimental: (§2) HepaRG cells procured from Thermo Fisher Scientific (Invitrogen) are terminally differentiated hepatic cells, which are derived from a hepatic progenitor cell line that retains many characteristics of primary human hepatocytes. […] LDH assay. Using the Pierce LDH Cytotoxicity assay kit from Thermo Scientific, cells were incubated in presence of various drug compounds, followed by collection of the medium supernatant. Release of LDH was measured in 96 well plate formats. The absorbance was measured at 490 nm and 680 nm and the final result was absorbance observed at 680 nm subtracted from absorbance observed at 490 nm (A490 nm-[…] nm). GSH assay. Using the ThiolTracker Violet Glutathione Detection reagent from Molecular Probes (Invitrogen), after hepatocytes were incubated in the presence of various compounds, incubation medium was removed, cells rinsed with D-PBS conditioned medium followed by incubation with pre-warmed ThiolTracker Violet dye (working solution prepared as per manufacturer's instructions) for 30 minutes. Fluorescence was measured at the following wavelengths: excitation (404 nm) and emission (526 nm). The finalized result was expressed as relative fluorescence units (RFU), which indicates the cellular level of reduced glutathione (GSH) in intact cells.

CD1 male mice [3] = experiment: Tail-flick assay; assay type: in vivo, mouse; conditions: 600 mg/Kg per os, 30 minutes post injection; versus ApAP
Experimental: Two different assays were utilized to quantify the analgesic effects of the compounds. All tests were performed on CD1 male mice. […] In some embodiments, the vehicle can comprise Agent K, 0.2%, Bio-serve, or Labrafil 1944 (Gottefosee, France). Compound or vehicle was administered orally by lavage under brief halothane anesthesia to animals fasted overnight. Tail-flick assay. Analgesic effect of drugs was determined by using the reaction time (latency) of mice to thermal stimulation of the tail tip. All animals (CD1 male mice) were fasted overnight (15 hours) and, their baseline tail flick latency (seconds) was recorded using an IITC Tail Flick Analgesia Meter. The tail of each mouse was exposed to a focused beam of light and the latency to remove the tail from the path of the stimulus were recorded electronically using a photoelectric cell of the IITC Tail Flick Analgesia Meter. The stimulus intensity was adjusted to produce baseline latencies of 3-6 seconds. […] At 30 minutes post injection, tail flick latency was recorded again to determine total change in latency. […] Data expressed as mean±SEM, n=10.

CYP3A4 = target: T2, CYP3A4 (Homo sapiens, UniProt P08684); experiment: VIVID CYP450 screening assay, CYP3A4; assay type: in vitro ADME; conditions: probe CYP enzyme specific fluorogenic substrate (not named)
T2 construct: purchased Life Technologies, Invitrogen/Thermo Fisher Scientific; host or cells: insect cells (microsomes)
Experimental: as §1

CYP2D6 = target: T3, CYP2D6 (Homo sapiens, UniProt P10635); experiment: VIVID CYP450 screening assay, CYP2D6; assay type: in vitro ADME
T3 construct: purchased Life Technologies, Invitrogen/Thermo Fisher Scientific; host or cells: insect cells (microsomes)
Experimental: as §1

HepaRG and hHEPs [4] = experiment: GSH assay (ThiolTracker Violet) in hepatocytes; assay type: cell-based, human; conditions: 500 μM and 1000 μM; time and dose-dependent
Experimental: as §2

CD1 male mice [5] = experiment: Liver function assays (ALT, AST, ALP) in serum; assay type: in vivo, mouse; conditions: 600 mg/kg PO
CD1 male mice [6] = experiment: Blood creatinine functional assay; assay type: in vivo, mouse; conditions: 600 mg/Kg PO, serum

T3 sequence (P10635 whole entry): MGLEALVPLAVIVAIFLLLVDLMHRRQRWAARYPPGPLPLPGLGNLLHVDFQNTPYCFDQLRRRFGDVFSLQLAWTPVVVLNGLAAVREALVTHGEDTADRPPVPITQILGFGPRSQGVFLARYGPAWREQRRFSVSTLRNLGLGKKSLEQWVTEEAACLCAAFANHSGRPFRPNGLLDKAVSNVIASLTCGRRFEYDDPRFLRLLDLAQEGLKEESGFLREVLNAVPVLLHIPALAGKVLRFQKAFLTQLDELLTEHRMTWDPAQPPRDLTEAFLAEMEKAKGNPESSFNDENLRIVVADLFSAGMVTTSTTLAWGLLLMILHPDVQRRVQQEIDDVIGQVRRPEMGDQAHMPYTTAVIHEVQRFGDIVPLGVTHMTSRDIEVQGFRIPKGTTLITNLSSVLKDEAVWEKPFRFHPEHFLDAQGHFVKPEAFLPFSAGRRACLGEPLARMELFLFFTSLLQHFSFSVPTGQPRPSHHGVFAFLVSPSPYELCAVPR
T1 sequence (P05181 whole entry): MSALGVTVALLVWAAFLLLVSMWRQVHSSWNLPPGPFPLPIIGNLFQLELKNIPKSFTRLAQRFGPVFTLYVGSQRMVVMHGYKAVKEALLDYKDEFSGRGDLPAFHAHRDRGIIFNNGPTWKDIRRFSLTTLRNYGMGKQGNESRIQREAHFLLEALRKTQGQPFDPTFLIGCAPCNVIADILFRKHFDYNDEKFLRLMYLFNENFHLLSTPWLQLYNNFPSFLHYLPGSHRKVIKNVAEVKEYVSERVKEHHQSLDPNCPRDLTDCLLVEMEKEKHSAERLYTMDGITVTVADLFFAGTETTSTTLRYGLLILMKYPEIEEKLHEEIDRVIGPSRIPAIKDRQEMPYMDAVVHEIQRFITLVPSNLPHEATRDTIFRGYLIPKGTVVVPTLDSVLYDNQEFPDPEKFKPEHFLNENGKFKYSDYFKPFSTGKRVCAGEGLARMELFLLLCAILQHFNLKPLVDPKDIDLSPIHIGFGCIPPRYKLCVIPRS
T2 sequence (P08684 whole entry): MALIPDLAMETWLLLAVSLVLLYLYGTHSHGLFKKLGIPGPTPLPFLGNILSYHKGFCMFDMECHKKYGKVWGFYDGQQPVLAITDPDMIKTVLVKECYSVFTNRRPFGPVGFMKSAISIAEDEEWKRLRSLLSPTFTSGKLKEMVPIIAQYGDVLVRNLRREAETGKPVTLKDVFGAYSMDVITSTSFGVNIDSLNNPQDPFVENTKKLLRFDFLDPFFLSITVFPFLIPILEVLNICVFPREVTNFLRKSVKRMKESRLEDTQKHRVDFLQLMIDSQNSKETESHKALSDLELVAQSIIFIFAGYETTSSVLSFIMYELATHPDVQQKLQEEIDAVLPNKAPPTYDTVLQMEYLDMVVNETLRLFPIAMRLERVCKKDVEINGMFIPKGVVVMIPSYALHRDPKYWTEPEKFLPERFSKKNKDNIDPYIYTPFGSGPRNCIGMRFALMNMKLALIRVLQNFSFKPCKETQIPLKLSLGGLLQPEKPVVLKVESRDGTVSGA

With `CCCCNC(=O)c1ccccc1S(=O)(=O)NCC(=O)Nc1ccc(O)cc1` [SRP6i] the “No. of writhes counted within a 10 min time interval, 25 min post drug administration, beginning 5 min after acetic acid injection” value (CD1 male mice [1]) was 7 and 12 and 16 and 17 and 22 and 27 and 33.

For `CC(C)CNC(=O)c1ccccc1S(=O)(=O)NCC(=O)Nc1ccc(O)cc1` [SRP6p], the “No. of writhes counted within a 10 min time interval, 25 min post drug administration, beginning 5 min after acetic acid injection” value (CD1 male mice [1]) was 14 (2×) and 17 and 24 and 26 and 29 and 30.

In the case of `O=C(CNS(=O)(=O)c1ccccc1C(=O)NCCc1cccc(O)c1O)Nc1ccc(O)cc1` [SRP6r], the “antipyresis (temperature curves)” value (mouse) is reported as “comparable antipyresis to ApAP”, the inhibition at 30 min (CYP2E1) is reported as about 25% and the “lactate dehydrogenase (LDH) release” value (HepaRG and hHEPs [2]) is reported as “consistently decreased”. For the same compound, the melting point was 87 to 89 °C, the “analgesia in tail flick test (latency)” value (CD1 male mice [3]) was “comparable significant analgesia” and the “No. of writhes counted within a 10 min time interval, 25 min post drug administration, beginning 5 min after acetic acid injection” value (CD1 male mice [1]) was 9 and 12 and 18 and 20 and 25 and 26 (2×). For the same compound, the “number of writhes induced by injection of acetic acid” value (CD1 male mice [1]) was 9.5+/−4, the inhibition at 30 min (CYP3A4) was about 25% and the “inhibitory effect for CYP2D6” value (CYP2D6) was “marginal inhibitory effect”. The “amount of reduced glutathione (GSH)” value (HepaRG and hHEPs [4]) was “increased”.

In the case of `CC(=O)Nc1ccc(O)cc1` [ApAP, N-acetyl-para-aminophenol, reference compound], the “ALT, AST and AP enzyme activity (liver function tests)” value (CD1 male mice [5]) is reported as “Increased levels”, the “No. of writhes counted within a 10 min time interval, 25 min post drug administration, beginning 5 min after acetic acid injection” value (CD1 male mice [1]) is reported as 11 and 12 and 14 and 15 and 16 (3×) and the blood creatinine levels (CD1 male mice [6]) is reported as “increased levels of creatinine”.

For `O=C(CNS(=O)(=O)c1ccccc1C(=O)NC1CCCC1)Nc1ccc(O)cc1` [SRP6o], the “No. of writhes counted within a 10 min time interval, 25 min post drug administration, beginning 5 min after acetic acid injection” value (CD1 male mice [1]) was 11 and 14 and 16 and 17 (2×) and 18 and 24.

In the case of `COc1ccc(CNC(=O)c2ccccc2S(=O)(=O)NCC(=O)Nc2ccc(O)cc2)cc1` [SRP6j], the “No. of writhes counted within a 10 min time interval, 25 min post drug administration, beginning 5 min after acetic acid injection” value (CD1 male mice [1]) is reported as 10 and 14 and 16 and 17 and 18 (2×) and 19.

With `CCN(CC)C(=O)c1ccccc1S(=O)(=O)NCC(=O)Nc1ccc(O)cc1` [SRP6d, 2-<[(4-Hydroxy-phenylcarbamoyl)-methyl]-sulfamoyl>-N,N-diethyl-benzamide] the “antipyresis (temperature curves)” value (mouse) was “comparable antipyresis to ApAP”, the inhibition at 30 min (CYP2E1) was about 25% and the “lactate dehydrogenase (LDH) release” value (HepaRG and hHEPs [2]) was “consistently decreased”. For the same compound, the “analgesia in tail flick test (latency)” value (CD1 male mice [3]) was “comparable significant analgesia”, the “No. of writhes counted within a 10 min time interval, 25 min post drug administration, beginning 5 min after acetic acid injection” value (CD1 male mice [1]) was 15 (3×) and 11 and 14 and 20 and 18 and the “number of writhes induced by injection of acetic acid” value (CD1 male mice [1]) was 15.7+/−1.2. For the same compound, the inhibition at 30 min (CYP3A4) was about 25%, the “inhibitory effect for CYP2D6” value (CYP2D6) was “marginal inhibitory effect” and the “amount of reduced glutathione (GSH)” value (HepaRG and hHEPs [4]) was “increased”.
